Data taken from a melting point compilation (Tetko et al.; mined from patent text by program, amines drawn as free bases though some values may be those of a salt).
Residues, ends and D or L forms follow the SMILES beside them. *: point of attachment. Boc = CC(C)(C)OC(=O)*

| melting point [°C] | SMILES |
| --- | --- |
| 65 | COc1ccc2c(c1)OC=C(C(=O)N1CCN(C(c3ccc(F)cc3)c3ccc(F)cc3)CC1)O2 |
| 142 to 143 | COc1ccc2c(c1)C(=O)N(CCCN(C)CCN1C(=O)c3cc(OC)ccc3C(C)(C)C1=O)C(=O)C2(C)C |
| 117 to 119 | Cc1ccc(C(=O)c2cc(C)n(C)c2)cc1 |
| 188 to 198 | COc1ccc(N2Cc3cnc(Nc4ccccc4)nc3N([C@@H](C)CO)C2=O)c(F)c1 |
| 200 | COc1ccc(N2CCN(CCc3ccc4[nH]c(=O)oc4c3)CC2)c2ccccc12 |
| 104 to 106 | COC(=O)CCc1cc(C(=O)c2ccccc2Cl)c(NC(=O)CBr)s1 |
| 143 to 144 | CCOC(=O)c1cc(C)cc(-c2ccc(N(C)C)cc2)n1 |
| 83 to 86 | Cc1c2n(c3ccccc13)C(=O)C(C(O)c1cccnc1)CC2 (stereo unspecified) |
| 229 to 230 | CC(C)(O)c1ccoc1C(=O)c1[nH]c2cc(Cl)ccc2c1CC(=O)O |
| 263 to 265 | CN1COc2cc3c4c(cccc4c21)C(=O)N(O)C3=O |
| 181 to 182 | Cc1cc(Cn2nnc(C(N)=O)c2N)ccc1C(=O)c1ccccc1 |
| 107 to 109 | C=CCc1c(C)ccc(N2C(=O)c3ccccc3C2=O)c1OCc1ccccc1 |
| 185 to 187 | O=C(Nc1c(Cl)cccc1Cl)C1c2ccccc2COc2ccc(Br)cc21 (stereo unspecified) |
| 128 to 129 | Cc1ccccc1CC(=O)c1cc(O)c(O)c([N+](=O)[O-])c1 |
| 247 to 248 | O=C1C2=C(CCCC2)C(=O)N1c1ccc(Br)c(O)c1 |
| 207 to 212 | CC1CC(=O)NN=C1c1ccc2c(c1)N(S(C)(=O)=O)CCO2 (stereo unspecified) |
| 152 to 153 | CN(C)c1ccc(/C=C/c2c(F)cccc2F)c([N+](=O)[O-])c1 |
| 127 to 128 | O=C1CCc2c1ccc1c2CCc2ccccc2-1 |

| melting point [°C] | SMILES |
| --- | --- |
| 204 to 206 | NS(=O)(=O)c1ccn2c1C(=O)OCC2 |
| 109 to 110 | O=C1C=CC(=O)N1c1ccc(Cl)cc1 |
| > 55 | CCCCc1nc(C(C)=O)c(C#N)n1Cc1ccc(-c2ccccc2C(=O)O)cc1 |
| 136 to 138 | CC(Oc1cccc(Cl)c1)c1nnc(N)s1 (stereo unspecified) |
| 209 | Cn1cc(C(=O)NCc2ccc(Cl)cc2)c(=O)c2cc(COCC(=O)c3ccccc3)sc21 |
| 113 to 114 | COc1ccc2c(CO)c(F)ccc2c1C(F)(F)F |
| 148 to 151 | CN1C(=O)N(c2c(Cl)cccc2Cl)Cc2cnc(Nc3ccc(CCO)cc3)nc21 |
| 208 to 209 | Cc1nn(-c2ccc(C(F)(F)F)cn2)cc1COc1cc(/C=C/C(=O)O)n(C)n1 |
| 101 to 103 | CCCc1c(OC(C)c2cccc(C(=O)O)c2)ccc(C(C)=O)c1O (stereo unspecified) |
| 167 to 168 | O=C1NC(=O)C(Nc2cccc(CCOCc3ccc4ccccc4n3)c2)S1 (stereo unspecified) |
| 267 to 270 | O=[N+]([O-])c1ccc(-c2n[nH]c3c2Cc2ccccc2-3)cc1 |
| 219 to 220 | O=C1COc2ccc3ccccc3c2N1 |
| 134 to 135 | CCC(C)c1nn(-c2ccc(C(F)(F)F)cn2)cc1CCCOc1c(C)cccc1CC(=O)O (stereo unspecified) |
| 228 to 229 | Cc1ccc(CNc2c(NC(C)(C)C)c(=O)c2=O)c(C)c1 |
| 153 to 156 | COC(=O)C(Cc1ccccc1)N1CC(N2C(=O)c3ccccc3C2=O)C1=O (stereo unspecified) |
| 243 to 245 | O=c1c2c(c3cccnc3n1-c1cccc(Cl)c1)OC(CO)C2 (stereo unspecified) |
| 89 to 90.5 | CN1C(=O)Cc2cccc(C(=O)c3ccccc3)c21 |

The remaining lines, values behind:

| SMILES | melting point [°C] |
| --- | --- |
| N#CN1c2ccccc2CC(O)c2ccccc21 (stereo unspecified) | 117 to 118 |
| CC(=O)NC1CC(C)(C)N(OC2CCCCC2)C(C)(C)C1 | 140 to 144 |
| CN(c1cncnc1)c1nc(N2CCOCC2)nc(-n2c(C(F)F)nc3ccccc32)n1 | 202 to 205 |
| O=C(O)c1ccccc1S(=O)(=O)Cc1c(O[C@H](Cn2ccnc2)c2ccccc2)ccc2c1CCCC2=O | 230 |
| CC(C)c1ccc(-c2cccc(-c3cccc(C(=O)O)c3)n2)cc1 | 215 to 216 |
| O=C(NCc1ccccc1C(F)(F)F)c1ccc2cnccc2n1 | 125 to 127 |
| NC(=O)CNCC(=O)NCCCO | 118 to 120 |
| COc1cc(C(=O)NS(=O)(=O)c2ccccc2C)ccc1Cc1c(Cl)n(C)c2ccc(CCNC(=O)N(C)C)cc12 | 222 to 224 |
| CCCC(O)P(=O)(O)OCCCN (stereo unspecified) | 188 |
| CCCc1c(OCCCOc2cc(NC(=O)C(=O)O)c(C(F)(F)F)cc2Cl)ccc(C(C)=O)c1O | 173 to 174 |
| CCCCC[C@@H](CNC(=O)Nc1c(N(C)C)ncnc1N(C)C)c1cccc2c1OCO2 | 151 to 152 |
| CC(=O)N[C@H](CF)CCC(=O)O | 80 to 83 |
| OCC=Cc1ccsc1 | 58 to 60 |
| CC(C)(C)OC(=O)N1CCC(c2ccc(C(=O)N3CCc4cc(S(C)(=O)=O)ccc43)nc2)CC1 | 202 to 205 |
| N#CC1(Sc2ccccc2)Cc2cc3c(cc21)N(C(=O)Nc1cccnc1)CC3 (stereo unspecified) | 110 to 113 |
| CC(=O)Nn1cnc2c(Br)csc2c1=O | 273 |
| COC(=O)C(CCSC)NC(=O)C(CC(C)C)NC(=O)CNC(=O)C(NC(=O)C(Cc1ccccc1)NC(=O)C(C)NC(=O)OC(C)(C)C)C(C)C (stereo unspecified) (Boc-AFVGLM-OMe; configuration not given here) | 252 to 254 |
| CCCCS(=O)(=O)Nc1ccc(Oc2cc(C)cc3cccnc23)cc1 | 189 to 190 |
| CCc1cc2c(Nc3nnc(C)s3)ncnc2s1 | 277 to 280 |
| O=C(CN1CCOCC1)NC(c1ccccc1)C1(c2ccc(Cl)cc2)CCC1 (stereo unspecified) | 95 to 97 |
| N#Cc1c(Cl)nc2ccc(S(=O)(=O)Cl)cc2c1Cl | 168 to 171 |
| O=C(c1ccc(-c2ccccc2)cc1)c1cccc(C(=O)c2ccc(-c3ccccc3)cc2)c1 | 182 to 186 |

| SMILES | melting point [°C] |
| --- | --- |
| CCc1nc(C)cn1S(=O)(=O)c1c[nH]cn1 | 147 to 148 |
| Cc1ccc(C(=O)Oc2ccccc2)cc1 | 74 to 76 |
| Cc1ccc2c([N+](=O)[O-])c(F)ccc2n1 | 105 to 108 |
| O=C(c1ccc([N+](=O)[O-])cc1)N1CCC[C@@H]2CCCC[C@H]21 (relative stereo) | 84 to 87 |
| NNC(=O)C(=O)N(NC(=O)c1cc(Cl)ccc1O)C(=O)c1ccccc1O | > 330 |
| OC1CCCN2CCCCC12 (stereo unspecified) | 70 |
| N#CN1c2ccccc2CC(Cl)c2ccccc21 (stereo unspecified) | 139 to 140 |
| COc1ccc(CNc2nc(SC)ncc2C(=O)c2cccnc2)cc1Cl | 141 to 142 |
| OCC1OC2CC(O)CC(C2)O1 (stereo unspecified) | 146 to 149 |
| Nc1ccc(F)c(F)c1NC(=S)Nc1c(Cl)cccc1Cl | > 310 |
| O=[N+]([O-])c1ccc(Oc2ccc3c(c2)Nc2ccccc2S3)cc1 | 210 to 211 |
| COc1c(O)cc(C(C)(C)C)c(O)c1C(=O)Nc1ccc(S(=O)(=O)C(F)(F)F)cc1Cl | 171 to 175 |
| ClCc1ccc(OCCC(c2ccccc2)(c2ccccc2)c2ccccc2)cc1 | 91 to 95 |
| O=C(O)c1cnc2cc(C3CCCCC3)ccc2c1O | 241 to 243 |
| O=C1Nc2ccccc2C(c2ccccc2)CC1Br (stereo unspecified) | 191 to 192 |
| Cn1c(SCCO)nnc1SCCO | 87 to 88 |
| CCCc1c(OCCOc2ccc([N+](=O)[O-])cc2)ccc(C(C)=O)c1O | 124 to 125 |
| NCC1Cc2c(C(F)(F)F)ccc(Cl)c2O1 (stereo unspecified) | > 250 |
| NC(=O)NN=Cc1ccc(Oc2ccc(F)cc2)c(F)c1 | 233 to 234 |
| CCCCCCNC(=O)Nc1ccccc1C(=O)NC1CCN(C(c2ccccc2)c2ccccc2)CC1 | 192 to 194 |
| COc1ccc(-c2ccc(C(=O)NN)cc2)cc1OC1CCCC1 | 167 to 168 |
| COC1=CC2=CCC3C(=CCC4(C)C(=O)CCC34)C2(C)CC1 (stereo unspecified) | 153 |

| SMILES | melting point [°C] |
| --- | --- |
| CCOC(NC(=O)c1snc(Cl)c1Cl)C(F)(F)F (stereo unspecified) | 99 to 101 |
| CC(Cc1c[nH]c2ccccc12)(NC(=O)OC1C2CC3CC(C2)CC1C3)C(=O)c1ccccc1CCCC(=O)O (stereo unspecified) | 123 to 137 |
| O=C(c1cccs1)c1cnn2c(-c3ccc(F)c(-c4ccc(CO)cc4)c3)ccnc12 | 140 to 145 |
| CON1C(C)(C)CC(OC(=O)c2ccc(C(=O)OC3CC(C)(C)N(OC)C(C)(C)C3)cc2)CC1(C)C | 179 to 181 |
| COC(=O)/C(=N/N(C)C)c1ccc(OCCOc2ccc3ccccc3c2)cc1 | 109 to 111 |
| O=[N+]([O-])c1ccccc1Cc1ncc[nH]1 | 155 to 157 |
| Oc1cnc2[nH]ccc2c1 | 206 to 209 |
| CC(=O)Oc1ccccc1C(=O)NC(S(=O)C(C)C)C(Cl)(Cl)Cl (stereo unspecified) | 90 to 92 |
| CCOC(=O)c1c(C(F)(F)F)nc(C(F)(F)F)c(C)c1O | 23 to 24.5 |
| CNC(=O)n1sc(SC)nc1=O | 144 |
| Cc1ccc(S(=O)(=O)N2CCCC2c2ccccc2Cl)cc1 (racemic) | 149 |
| Brc1nc2cncnc2n1Cc1ccccc1 | 119 to 121 |
| CC(C)(C)OC(=O)NCCCCNC(=O)COc1cccc(C(F)(F)F)c1 | 86 |
| COc1cc(NC(=O)OC(C)(C)C)ccc1OCCCN1CCN(c2ccccc2)CC1 | 125 to 126 |
| COC(=O)COc1cccc(CCNC(=O)/C=C/c2cccnc2)c1 | 102 to 104 |
| O=C(O)c1ccc(C(c2ccccc2)(c2ccc(C(=O)O)c(C(=O)O)c2)C(F)(F)F)cc1C(=O)O | 210 to 213 |
| CC1(C)CCC(C)(C)c2cc(C#Cc3ccc(-c4nnn[nH]4)cc3)ccc21 | 227 to 228 |
| CC1(C)OCCN1C(=O)C(Cl)Cl | 113 to 115 |
| C=C(c1cc(F)ccc1OCc1ccc(-c2ccccc2)cc1)n1ccnc1 | 97 to 98 |
| CC(C)n1cnc2c(Nc3ccc([N+](=O)[O-])cc3)nc(Cl)nc21 | > 260 |
| CCOC(Nc1ccccc1)(OCC)C1(Cl)C=C(C)N=C(C(=O)c2ccc(Cl)cc2)C1 (stereo unspecified) | 134 to 135 |
| C#CCN(C(=O)OC(C)(C)C)C1CCc2ccc([N+](=O)[O-])cc21 (stereo unspecified) | 56 to 59 |
